Test results taken from patent EP3856897B1 (Anadolu Universitesi, priority 2018, dated 2020).
Like-named read-outs stand apart in the source and are kept apart here.

Tests used:
[1] = target: T1, recombinant Tetrahymena thermophila Glutathione S Transferase Mu34 (TtGSTm34-8xHis) enzyme, SEQ ID NO: 1 (Tetrahymena thermophila, UniProt I7M2D2); assay: Enzyme kinetics of recombinant TtGSTm34-8xHis for substrates GSH and CDNB (spectrophotometric at 340 nm, Lineweaver-Burk); assay type: biochemical; conditions: 200 mM potassium phosphate buffer, 25°C; for Km: 7 substrate concentrations 0.1125-3.6 mM, the other substrate (GSH or CDNB) held at 0.9 mM, Lineweaver-Burk graph; for Kcat: kcat = Vmax/Et, the other substrate held at 0.9 mM
T1 sequence (I7M2D2 39-257): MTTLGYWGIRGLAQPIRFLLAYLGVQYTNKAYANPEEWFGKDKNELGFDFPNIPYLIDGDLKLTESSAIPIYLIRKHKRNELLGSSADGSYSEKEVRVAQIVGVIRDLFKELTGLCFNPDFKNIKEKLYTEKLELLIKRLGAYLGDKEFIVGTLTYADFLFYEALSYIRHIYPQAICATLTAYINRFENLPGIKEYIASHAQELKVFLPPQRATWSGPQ
Experimental: Determination of GST enzyme activities of affinity purified proteins was performed spectrophotometrically in the presence of 1-chloro-2,4-dinitrobenzene (CDNB) as substrate. […] The enzyme activities were measured with BioTek The Synergy ™ HT Elisa device using Gen5 software. The O.D values for enzyme activity were determined at 340 nm for 30 minutes with 2 minutes intervals, using BioTek The Synergy™ HT Elisa Reader kinetics program.
Unit value of activity is defined as the amount of enzyme that catalyzes 1 µmol substrate at 25°C (CDNB extinction coefficient340 nm = 9.6 mM^-1 cm^-1). The enzyme activities were first calculated in terms of U/ml. Then these values were divided by protein concentrations that were determined by Bradford method (Pierce™ Coomassie Plus Bradford Assay Reagent Cat no: 23238). This way specific activities were calculated in terms of U/mg.
Then activity measurements were carried out in 200 mM potassium phosphate buffer at 25°C for 7 different CDNB concentrations: 0,1125 mM, 0,225 mM, 0,45 mM, 0,9 mM, 1,8 mM, 2,7 mM ve 3,6 mM. A 1/V^- 1 [CDNB] Lineweaver-Burk graph was drawn according to the results obtained (Figure 8). With this graphical aid, Km and Vmax values for CDNB were determined.
These calculations were followed by quantitative protein assay (Bradford) and total enzyme amount (Et) was determined. Kcat value, which reflects the enzyme turnover number was calculated using the formula given below: kcat = Vmax /Et [formula]
One way of comparing the catalytic effects of various enzymes or the conversion of different substrates to the product with the same enzyme is to find the specificity constant (V0) for the reactions. The specificity constant is calculated by the following formula: V0 = kcat /km [formula]

[2] = target: T2, mu class glutathione S-transferase from Manila clam Ruditapes philippinarum (RpGSTµ) (Ruditapes philippinarum, UniProt G9HSP7); conditions: from Bathige et al., 2014, cited from earlier work
T2 sequence (G9HSP7 1-217): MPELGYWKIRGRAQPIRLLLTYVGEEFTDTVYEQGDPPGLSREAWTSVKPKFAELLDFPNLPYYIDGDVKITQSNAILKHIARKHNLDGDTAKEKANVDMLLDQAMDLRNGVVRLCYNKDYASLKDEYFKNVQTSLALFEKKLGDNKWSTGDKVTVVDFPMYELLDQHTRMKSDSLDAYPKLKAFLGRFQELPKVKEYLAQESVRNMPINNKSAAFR

Row | Structure (SMILES) | Km [1] [µM] | Kcat [1] [s⁻¹] | Km [2] [µM] | Km ([1]; read-out: Km) [µM] | Km ([2]; read-out: Km) [µM]
1 | O=[N+]([O-])c1ccc(Cl)c([N+](=O)[O-])c1 [CDNB, 1-Chloro-2,4-dinitrobenzene] | 470 | 195.4 | 560 | – | –
2 | N[C@@H](CCC(=O)N[C@@H](CS)C(=O)NCC(=O)O)C(=O)O [GSH, glutathione] | – | 186.9 | – | 540 | 1030
